# Values quoted from earlier work, collected in patent US20100015044A1, “Methods and compositions for diagnosis of iga-and igm-mediated kidney diseases” (priority 2005, published 2010).
# Tests used:
# IgG = conditions: transfection studies in leukocytes
# murine IgM = murine IgM (Mus musculus, UniProt P01872)
# IgM = IgM (Homo sapiens, UniProt P01871)
# IgM, sequence (P01871 1-433 limits assumed): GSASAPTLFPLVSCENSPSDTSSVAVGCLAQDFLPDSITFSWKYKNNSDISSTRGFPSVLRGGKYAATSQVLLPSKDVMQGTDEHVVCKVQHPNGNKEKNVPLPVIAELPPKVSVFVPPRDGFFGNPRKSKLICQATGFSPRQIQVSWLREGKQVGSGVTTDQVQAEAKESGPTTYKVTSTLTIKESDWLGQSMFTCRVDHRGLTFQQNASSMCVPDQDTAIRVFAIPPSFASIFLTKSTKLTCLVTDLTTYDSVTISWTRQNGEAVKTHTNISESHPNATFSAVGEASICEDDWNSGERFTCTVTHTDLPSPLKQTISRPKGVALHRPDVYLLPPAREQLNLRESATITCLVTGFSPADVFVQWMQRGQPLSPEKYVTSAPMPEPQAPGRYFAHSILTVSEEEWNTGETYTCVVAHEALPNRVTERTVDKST
# IgM, sequence (P01591 23-159 partner): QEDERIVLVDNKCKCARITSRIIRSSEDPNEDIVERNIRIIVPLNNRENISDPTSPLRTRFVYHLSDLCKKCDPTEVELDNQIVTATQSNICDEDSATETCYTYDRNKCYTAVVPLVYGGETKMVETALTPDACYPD
# murine IgM, sequence (P01872 whole entry, other chains not shown): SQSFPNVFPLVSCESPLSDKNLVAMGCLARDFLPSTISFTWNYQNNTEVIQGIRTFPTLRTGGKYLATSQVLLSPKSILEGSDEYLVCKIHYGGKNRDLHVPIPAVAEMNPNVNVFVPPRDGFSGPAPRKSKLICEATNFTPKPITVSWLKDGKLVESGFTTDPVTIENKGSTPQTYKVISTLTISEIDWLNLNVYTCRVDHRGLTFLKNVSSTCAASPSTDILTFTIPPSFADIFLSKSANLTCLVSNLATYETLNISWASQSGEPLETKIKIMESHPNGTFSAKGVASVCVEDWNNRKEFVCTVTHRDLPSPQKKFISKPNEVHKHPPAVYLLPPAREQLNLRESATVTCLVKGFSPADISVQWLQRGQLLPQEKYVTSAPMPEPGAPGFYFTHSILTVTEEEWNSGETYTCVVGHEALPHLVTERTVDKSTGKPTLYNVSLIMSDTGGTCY
# murine IgM, sequence (P01592 23-159 partner limits assumed, other chains not shown): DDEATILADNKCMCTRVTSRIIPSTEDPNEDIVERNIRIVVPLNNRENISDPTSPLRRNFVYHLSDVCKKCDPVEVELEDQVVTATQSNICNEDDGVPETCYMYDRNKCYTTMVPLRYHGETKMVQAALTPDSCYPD
molecule,measurement,setting,value
FcαR1: human membrane glycoprotein Fc receptor for IgA,binding to IgG,IgG,does not bind IgG
"Sap: 50-residue synthetic peptide including the 29-residue IgA-binding region of Sir22, with C-terminal cysteine (YYALSDAKEEEPRYKALRGENQDLREKERKYQDKIKKLEEKEKNLEKKSC; Sap)",binding to human IgA,human IgA,specifically binds
YDWIPSSAW (IgM binding peptide) [YDWIPS SAW],inhibition of human rheumatoid factor induced agglutination of IgG-coated latex beads,human rheumatoid factor,inhibits
same,binding to murine IgM,murine IgM,high affinity
same,binding to other immunoglobulins,other immunoglobulins,no binding abilities
"human Fcα/μ receptor: human receptor constitutively expressed on the majority of B-lymphocytes and macrophages (protein, listed as Homo sapiens) MDGEATVKPGEQVPLWTHGWPPDDPSPSFAAGSSFALPQKRPHPRWLWEGSLPSRTHLRAMGTLRPSSPLCWREESSFAAPNSLKGSRLVSGEPGGAVTIQCHYAPSSVNRHQRKYWCRLGPPRWICQTIVSTNQYTHHRYRDRVALTDFPQRGLFVVRLSQLSPDDIGCYLCGIGSENNMLFLSMNLTISAGPASTLPTATPAAGELTMRSYGTASPVANRWTPGTTQTLGQGTAWDTVASTPGTSKTTASAEGRRTPGATRPAAPGTGSWAEGSVKAPAPIPESPPSKSRSMSNTTEGVWEGTRSSVTNRARASKDRREMTTTKADRPREDIEGVRIALDAAKKVLGTIGPPALVSETLAWEILPQATPVSKQQSQGSIGETTPAAGMWTLGTPAADVWITSMEAASGEGSAAGDLDAATGDRGPQATLSQTPAVGPWGPPGKESSVKRATCPGLSTLKEIKVSAVLTQNPHSLLCVSAAQEAERVTLIQMTHFLEVNPQADQLPHVERKMLQDDSLPAGASLTAPERNPGP",binding to IgA,IgA,intermediate to high affinity
same,binding to IgM,IgM,intermediate to high affinity
